# Assay results as given in ChEMBL document CHEMBL1201862, “PubChem BioAssay data set” (2004).
# Calls of active or inactive are those of the source.
# Legend:
# [1] = NIH-3T3 fibroblast cytotoxicity, dose response, cytotoxicity control, cell-based, fluorescence, Alamar Blue, secondary assay (AID 2327); type: functional;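 also: NIH-3T3 mouse fibroblasts cultured with fluconazole at 8 µg/mL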
# [2] = tested on: Streptococcus sp. 'group A'; assay: Streptococcus pyogenes SK(-)GAS viability under kanamycin – luminescence, BacTiterGlo, confirmation, counter-screen for streptokinase expression inhibitor project, dose response (AID 1900); type: functional, organism-based
# [3] = fluconazole-exposed Candida albicans growth modulators – fluorescence, retest, confirmation (AID 2467); type: functional, cell-based
# Estrogen receptor beta = Estrogen receptor beta (Homo sapiens, UniProt Q92731);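 also: recombinant ER-beta bound to coactivator SRC1 peptide in presence of estradiol agonist; inhibitors block coactivator peptide binding and lower the FRET signal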
# Streptococcus = assay: GAS UMAA2166 growth inhibition – luminescence, BacTiterGlo, counter-screen for streptokinase expression inhibitor project, dose response (AID 1915); type: functional, organism-based;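 also: potency for reduction of bacterial viability or growth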
# [4] = potency of ADAM10 substrate cleavage blockers – biochemical, QFRET, dose response (AID 743254);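 also: ADAM10 enzyme with the DM2 quenched FRET peptide as substrate; EDANS fluorescence gain as the protease cuts the substrate; inhibitor potency against ADAM10 proteolytic activity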
# [5] = target: Disintegrin and metalloproteinase domain-containing protein 17 (Homo sapiens, UniProt P78536); assay: inhibition of ADAM17 substrate cleavage – biochemical, quenched FRET substrate, counter-screen for ADAM10 exosite inhibitor project, dose response (AID 743253)
# [6] = Luminescence Cell-Based Dose Retest to Confirm Inhibitors of Cancer Stem Cells. [Related pubchem assays (depositor defined):AID2717, AID2721]; type: functional; conditions: Homo sapiens
# H9c2 = assay: cells; type: functional, cell-based; conditions: Rattus norvegicus, H9c2, Myocardium;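 also: confirmatory concentration-response retest of ultra-high-throughput screening hits for modulation of myocardial damage; cell death induced by hydrogen peroxide oxidative stress; compound pretreatment for 60 min then peroxide exposure for 2 h; potency is for protecting the cells against peroxide damage rather than for killing them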
# [7] = ATP-based viability loss in HEK293T cells – cell-based, CellTiter-Glo luminescence, cherry-picked samples, set 4, cytotoxicity control, dose response (AID 743441); type: functional; conditions: HEK293
# [8] = target: T1, Short transient receptor potential channel 4 (Mus musculus, UniProt Q9QUQ5); assay: calcium entry via TRPC4 opening agents – cell-based, HEK293 TRPC4/mu-opioid, Fluo-4 calcium, dose response (AID 434937); type: functional
# T1 sequence (Q9QUQ5 whole entry): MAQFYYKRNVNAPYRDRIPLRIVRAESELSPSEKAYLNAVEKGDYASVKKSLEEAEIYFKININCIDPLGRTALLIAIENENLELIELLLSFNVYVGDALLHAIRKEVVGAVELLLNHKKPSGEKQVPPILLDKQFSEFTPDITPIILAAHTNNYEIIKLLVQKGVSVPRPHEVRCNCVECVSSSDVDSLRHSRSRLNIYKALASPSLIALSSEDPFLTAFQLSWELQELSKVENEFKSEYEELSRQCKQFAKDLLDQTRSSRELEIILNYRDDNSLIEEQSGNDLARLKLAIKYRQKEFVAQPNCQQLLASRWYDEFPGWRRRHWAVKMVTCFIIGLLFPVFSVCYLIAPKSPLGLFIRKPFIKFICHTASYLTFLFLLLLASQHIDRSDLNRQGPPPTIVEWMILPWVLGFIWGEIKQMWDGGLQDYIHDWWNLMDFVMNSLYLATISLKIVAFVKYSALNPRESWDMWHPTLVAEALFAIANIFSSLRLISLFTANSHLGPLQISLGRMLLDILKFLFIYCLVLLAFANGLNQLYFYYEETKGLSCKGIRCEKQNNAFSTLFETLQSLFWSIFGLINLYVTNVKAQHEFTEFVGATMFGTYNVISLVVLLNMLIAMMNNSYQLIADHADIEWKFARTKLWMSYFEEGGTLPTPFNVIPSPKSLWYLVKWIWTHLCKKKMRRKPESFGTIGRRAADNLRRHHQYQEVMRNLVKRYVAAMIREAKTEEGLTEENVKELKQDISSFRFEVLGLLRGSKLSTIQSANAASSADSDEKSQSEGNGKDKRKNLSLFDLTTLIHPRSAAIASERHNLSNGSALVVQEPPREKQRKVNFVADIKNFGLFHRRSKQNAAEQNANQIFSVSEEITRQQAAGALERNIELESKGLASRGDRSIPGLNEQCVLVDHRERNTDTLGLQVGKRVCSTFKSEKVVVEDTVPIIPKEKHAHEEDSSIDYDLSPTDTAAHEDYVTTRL
# [9] = HGIII-sPLA2 enzyme inhibition potency – biochemical, QFRET, IC50, dose response (AID 743457);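 also: green fluorescence rise as the enzyme cleaves BODIPY PC-A2 in liposomes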
# [10] = target: T2, High affinity choline transporter 1 (Homo sapiens, UniProt Q9GZV3); assay: inhibition of SLC5A7-mediated choline transport – cell-based, HEK-293 hCHT, [3H]-choline uptake, dose response (AID 652177); type: functional
# T2 sequence (Q9GZV3 whole entry): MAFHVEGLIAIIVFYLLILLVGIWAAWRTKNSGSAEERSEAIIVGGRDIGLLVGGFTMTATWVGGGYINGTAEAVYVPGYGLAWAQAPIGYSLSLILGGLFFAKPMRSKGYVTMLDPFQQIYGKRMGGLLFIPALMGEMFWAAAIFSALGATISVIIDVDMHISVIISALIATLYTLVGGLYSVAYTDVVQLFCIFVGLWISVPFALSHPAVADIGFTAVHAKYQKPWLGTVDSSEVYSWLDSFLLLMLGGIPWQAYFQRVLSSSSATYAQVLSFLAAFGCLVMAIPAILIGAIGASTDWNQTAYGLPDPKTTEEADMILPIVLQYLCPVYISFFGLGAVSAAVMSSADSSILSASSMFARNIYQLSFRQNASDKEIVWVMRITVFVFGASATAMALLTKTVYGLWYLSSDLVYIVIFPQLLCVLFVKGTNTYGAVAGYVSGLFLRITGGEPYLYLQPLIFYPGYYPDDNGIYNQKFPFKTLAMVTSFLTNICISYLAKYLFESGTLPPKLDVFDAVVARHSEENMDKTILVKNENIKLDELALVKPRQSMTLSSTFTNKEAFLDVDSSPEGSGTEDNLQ
# [11] = loss of viability in embryonic kidney cells – cell-based, HEK293T, ATP luminescence, dry powder, cytotoxicity control, dose response (AID 652119); type: functional; conditions: HEK293
# [12] = target: Protein disulfide-isomerase (Homo sapiens, UniProt P07237); assay: inhibition of PDI-mediated insulin reduction – biochemical, turbidity, dry powder samples, set 2, confirmation (AID 652146)
# [13] = human cervical cancer cell viability loss – 24 h, plate reader, dry powder, cytotoxicity control, dose response (AID 686928); type: functional, cell-based; conditions: HeLa
# [14] = A Cell-Based Confirmatory Screen for Compounds that Inhibit VEEV, TC-83 (8).; type: functional
# [15] = HepG2 cell viability loss – cherry-picked samples, cytotoxicity control, dose response (AID 1053183); type: functional, cell-based
# [16] = HEK293 cell viability loss – cherry-picked samples, cytotoxicity control, dose response (AID 1053185); type: functional, cell-based
# [17] = A549 cell viability loss – cherry-picked samples, cytotoxicity control, dose response (AID 1053184); type: functional, cell-based
# Paired box protein Pax-8 = Paired box protein Pax-8 (Homo sapiens, UniProt Q06710); assay: PAX8 transcriptional activity inhibition in RMG-I – RMG-I cells, luciferase, cherry-pick, dose response (AID 687027); type: functional, cell-based;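 also: luciferase reporter driven by Pax8 target thyroperoxidase promoter measured by SteadyGlo luminescence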
# [18] = OVCAR-3 cell viability loss – plate reader, dry powder samples, PAX8 inhibitor project, dose response (AID 743044); type: functional, cell-based
# [19] = A549 cell cytotoxicity, dose response, cytotoxicity control, plate reader, cherry-pick, antagonist series (AID 743412); type: functional, cell-based
# [20] = toxicity toward HepG2 liver cells – cell-based, plate reader, cherry-pick, antagonist series, cytotoxicity control, dose response (AID 743416); type: functional
# [21] = IGROV1 cell killing – plate reader, dry powder samples, PAX8 inhibitor project, dose response (AID 743043); type: functional, cell-based; conditions: IGROV-1
# [22] = blockers of bursicon-stimulated LGR2 cAMP reporter – cell-based, HEK293, CRE-luciferase reporter, cherry pick, set 2, dose response (AID 743343); type: functional;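 also: transfected cells were stimulated with diluted bursicon conditioned medium after compound addition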
# [23] = blockade of melanocortin 4 receptor signaling – cell-based, plate reader, cherry pick, counter-screen for LGR2 antagonist project, dose response (AID 743444); type: functional;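 also: transfected HEK 293 cells stimulated with alpha-MSH peptide; potency of inhibitors of the alpha-MSH evoked signal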
# [24] = OVCAR8 cell viability loss – plate reader, dry powder samples, PAX8 project, dose response (AID 743197); type: functional, cell-based; conditions: OVCAR-8
# [25] = viability loss in HEK293 cells – cell-based, plate reader, cherry-picked samples, cytotoxicity control, dose response (AID 743446); type: functional
# [26] = target: Potassium channel subfamily K member 9 (Homo sapiens, UniProt Q9NPC2); assay: KCNK9 flux blockade, concentration-response – cell-based, FluxOR thallium flux, selectivity assay for TASK1 inhibitor project, SAR follow-up (AID 652211); type: functional;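 also: potency is for inhibitors of the channel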
# [27] = target: Voltage-gated inwardly rectifying potassium channel KCNH2 (Homo sapiens, UniProt Q12809); assay: off-target hERG block by TASK1 inhibitor candidates – FluxOR thallium flux, concentration-response, CHO cells, selectivity assay for TASK1 inhibitor project, SAR follow-up (AID 652194); type: functional, cell-based
# [28] = target: Potassium channel subfamily K member 3 (Homo sapiens, UniProt O14649); assay: inhibition of human KCNK3 channel flux – CHO cells, FluxOR thallium flux, SAR follow-up (AID 652212); type: functional
# [29] = Luminescence Cell-Based Dose Response to Identify Activators of 5'UTR Stem-Loop Driven Prion Protein mRNA Translation in H4-C Neuroglioblastoma Cells. [Related pubchem assays: 1829 (Project Summary), 1814 (Primary HTS)]; type: functional
# [30] = Luminescence Cell-Based Dose Response HTS to Identify Activators of Luciferase Translation or Activity in H4 […] Cells. [Related pubchem assays: 1829 (Project Summary), 1814 (Primary HTS)]; type: functional
# H4 = assay: Luminescence Cell-Based Dose Response HTS to Identify Activators of 5'UTR Stem-Loop Driven Prion Protein mRNA Translation in H4 Neuroglioblastoma Cells. [Related pubchem assays: 1829 (Project Summary), 1814 (Primary HTS)]; type: functional; conditions: Homo sapiens
# [31] = Luminescence Cell-Based Dose Response to Identify Activators of Luciferase Translation or Activity in H4-C Neuroglioblastoma Cells. [Related pubchem assays: 1829 (Project Summary), 1814 (Primary HTS)]; type: functional
# [32] = Luminescence Cell-Based Dose Confirmation to Identify Activators of 5'UTR Stem-Loop Driven Alpha-Synuclein mRNA Translation in H4 Neuroglioblastoma Cells. [Related pubchem assays: 1829 (Project Summary), 1814 (Primary HTS)]; type: functional
# [33] = target: FAD-linked sulfhydryl oxidase ALR (Homo sapiens, UniProt P55789); assay: ALR-catalysed DTT oxidation blockers – biochemical, H2O2 detection, luminescence, cherry-pick, dose response (AID 493248)
# [34] = target: T3, Oxysterols receptor LXR-beta (Homo sapiens, UniProt P55055); type: functional, cell-based;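 also: agonist activity at LXR measured by a cell-based luminescence readout across a dose range, run as a counterscreen for daf-12 agonists; HEK293 cells with Gal4-LXR fusion and GAL4-driven luciferase reporter; potency for activation of Gal4-LXR reporter so compounds are agonists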
# T3 sequence (P55055 whole entry): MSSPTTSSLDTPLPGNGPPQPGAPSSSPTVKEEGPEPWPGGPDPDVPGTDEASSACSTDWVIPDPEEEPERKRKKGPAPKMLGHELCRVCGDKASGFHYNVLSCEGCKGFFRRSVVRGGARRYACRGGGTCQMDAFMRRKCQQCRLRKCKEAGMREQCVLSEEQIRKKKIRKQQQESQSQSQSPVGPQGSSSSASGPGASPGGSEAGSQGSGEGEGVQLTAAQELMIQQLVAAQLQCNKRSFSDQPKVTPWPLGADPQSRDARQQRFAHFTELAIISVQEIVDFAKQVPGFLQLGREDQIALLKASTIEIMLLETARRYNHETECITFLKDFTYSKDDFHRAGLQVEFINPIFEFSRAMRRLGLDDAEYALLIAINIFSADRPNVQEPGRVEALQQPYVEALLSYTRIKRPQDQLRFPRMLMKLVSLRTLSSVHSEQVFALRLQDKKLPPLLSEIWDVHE
# FAD-linked sulfhydryl oxidase ALR, sequence (P55789 whole entry, the tested form may be a part): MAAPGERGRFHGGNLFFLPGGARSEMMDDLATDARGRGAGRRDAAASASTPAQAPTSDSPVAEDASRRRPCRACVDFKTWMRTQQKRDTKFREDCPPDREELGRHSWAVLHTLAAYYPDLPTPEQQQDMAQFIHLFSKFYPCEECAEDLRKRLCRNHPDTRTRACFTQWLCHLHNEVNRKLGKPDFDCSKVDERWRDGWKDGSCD
# Potassium channel subfamily K member 9, sequence (Q9NPC2 whole entry): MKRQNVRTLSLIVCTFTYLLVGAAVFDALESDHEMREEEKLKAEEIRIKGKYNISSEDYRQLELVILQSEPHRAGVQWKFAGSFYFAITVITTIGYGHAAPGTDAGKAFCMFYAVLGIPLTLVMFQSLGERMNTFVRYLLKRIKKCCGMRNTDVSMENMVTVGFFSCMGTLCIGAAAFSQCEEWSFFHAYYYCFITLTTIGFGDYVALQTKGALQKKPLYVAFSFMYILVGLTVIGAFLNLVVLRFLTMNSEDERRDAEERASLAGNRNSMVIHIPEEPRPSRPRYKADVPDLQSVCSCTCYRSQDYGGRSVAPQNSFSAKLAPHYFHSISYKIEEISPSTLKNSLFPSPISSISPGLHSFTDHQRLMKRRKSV
# Protein disulfide-isomerase, sequence (P07237 whole entry): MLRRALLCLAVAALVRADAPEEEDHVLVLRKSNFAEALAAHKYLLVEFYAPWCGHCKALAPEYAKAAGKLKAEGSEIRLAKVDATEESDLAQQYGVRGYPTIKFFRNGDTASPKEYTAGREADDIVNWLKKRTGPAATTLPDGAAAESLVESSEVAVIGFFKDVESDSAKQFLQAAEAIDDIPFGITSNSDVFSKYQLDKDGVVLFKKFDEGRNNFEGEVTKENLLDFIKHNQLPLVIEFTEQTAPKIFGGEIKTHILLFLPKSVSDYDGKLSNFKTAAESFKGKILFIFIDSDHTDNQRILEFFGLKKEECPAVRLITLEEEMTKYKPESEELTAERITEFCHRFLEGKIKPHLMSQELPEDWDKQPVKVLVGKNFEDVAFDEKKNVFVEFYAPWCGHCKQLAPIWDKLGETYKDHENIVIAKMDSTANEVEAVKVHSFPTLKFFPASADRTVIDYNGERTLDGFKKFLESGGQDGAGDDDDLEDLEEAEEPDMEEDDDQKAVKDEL
# Estrogen receptor beta, sequence (Q92731 whole entry): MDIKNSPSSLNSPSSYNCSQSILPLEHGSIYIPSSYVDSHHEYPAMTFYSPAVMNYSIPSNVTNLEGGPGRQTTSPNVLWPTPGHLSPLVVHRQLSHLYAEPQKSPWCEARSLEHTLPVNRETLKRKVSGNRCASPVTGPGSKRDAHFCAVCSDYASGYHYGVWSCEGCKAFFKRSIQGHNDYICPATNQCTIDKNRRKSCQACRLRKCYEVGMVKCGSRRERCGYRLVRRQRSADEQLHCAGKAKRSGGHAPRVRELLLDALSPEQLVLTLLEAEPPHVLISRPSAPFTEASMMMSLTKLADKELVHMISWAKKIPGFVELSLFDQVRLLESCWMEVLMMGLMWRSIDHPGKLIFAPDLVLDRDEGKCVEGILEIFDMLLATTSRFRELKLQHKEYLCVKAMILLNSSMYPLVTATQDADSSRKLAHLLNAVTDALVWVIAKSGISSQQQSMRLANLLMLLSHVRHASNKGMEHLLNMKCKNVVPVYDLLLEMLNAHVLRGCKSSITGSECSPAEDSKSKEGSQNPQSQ
# Disintegrin and metalloproteinase domain-containing protein 17, sequence (P78536 whole entry, the tested form may be a part): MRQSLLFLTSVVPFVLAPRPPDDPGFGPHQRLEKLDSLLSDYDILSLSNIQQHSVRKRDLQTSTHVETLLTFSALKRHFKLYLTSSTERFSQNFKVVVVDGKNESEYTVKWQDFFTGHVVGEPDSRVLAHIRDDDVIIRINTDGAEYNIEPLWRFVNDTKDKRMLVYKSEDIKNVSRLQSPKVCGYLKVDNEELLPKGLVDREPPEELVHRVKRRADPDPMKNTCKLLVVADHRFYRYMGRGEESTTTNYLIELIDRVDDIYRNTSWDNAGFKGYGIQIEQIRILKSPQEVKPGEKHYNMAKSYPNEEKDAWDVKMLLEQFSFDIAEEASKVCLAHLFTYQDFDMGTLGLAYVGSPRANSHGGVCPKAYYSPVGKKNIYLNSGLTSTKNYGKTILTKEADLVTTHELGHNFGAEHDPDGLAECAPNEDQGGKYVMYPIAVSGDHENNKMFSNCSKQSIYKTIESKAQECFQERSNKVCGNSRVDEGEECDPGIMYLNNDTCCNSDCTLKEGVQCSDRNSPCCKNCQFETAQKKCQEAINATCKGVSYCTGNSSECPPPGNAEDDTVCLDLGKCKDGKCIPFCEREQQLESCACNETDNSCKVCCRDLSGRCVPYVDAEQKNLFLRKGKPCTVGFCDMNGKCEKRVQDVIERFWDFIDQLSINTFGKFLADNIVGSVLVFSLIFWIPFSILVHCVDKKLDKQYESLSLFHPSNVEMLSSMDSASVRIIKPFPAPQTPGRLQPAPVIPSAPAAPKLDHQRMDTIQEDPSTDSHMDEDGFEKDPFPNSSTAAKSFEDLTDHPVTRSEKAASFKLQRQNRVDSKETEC
# Potassium channel subfamily K member 3, sequence (O14649 whole entry): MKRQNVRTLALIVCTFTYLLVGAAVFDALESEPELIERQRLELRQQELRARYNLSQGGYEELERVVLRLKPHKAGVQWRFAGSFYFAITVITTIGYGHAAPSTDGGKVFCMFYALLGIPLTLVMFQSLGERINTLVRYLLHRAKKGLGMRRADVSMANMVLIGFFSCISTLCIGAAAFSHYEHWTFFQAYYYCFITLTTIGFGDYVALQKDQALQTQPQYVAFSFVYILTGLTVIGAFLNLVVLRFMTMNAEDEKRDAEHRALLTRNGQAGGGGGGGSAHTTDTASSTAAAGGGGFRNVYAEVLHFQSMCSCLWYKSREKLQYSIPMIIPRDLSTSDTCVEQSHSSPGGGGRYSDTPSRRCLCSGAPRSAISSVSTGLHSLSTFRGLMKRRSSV
# Voltage-gated inwardly rectifying potassium channel KCNH2, sequence (Q12809 whole entry): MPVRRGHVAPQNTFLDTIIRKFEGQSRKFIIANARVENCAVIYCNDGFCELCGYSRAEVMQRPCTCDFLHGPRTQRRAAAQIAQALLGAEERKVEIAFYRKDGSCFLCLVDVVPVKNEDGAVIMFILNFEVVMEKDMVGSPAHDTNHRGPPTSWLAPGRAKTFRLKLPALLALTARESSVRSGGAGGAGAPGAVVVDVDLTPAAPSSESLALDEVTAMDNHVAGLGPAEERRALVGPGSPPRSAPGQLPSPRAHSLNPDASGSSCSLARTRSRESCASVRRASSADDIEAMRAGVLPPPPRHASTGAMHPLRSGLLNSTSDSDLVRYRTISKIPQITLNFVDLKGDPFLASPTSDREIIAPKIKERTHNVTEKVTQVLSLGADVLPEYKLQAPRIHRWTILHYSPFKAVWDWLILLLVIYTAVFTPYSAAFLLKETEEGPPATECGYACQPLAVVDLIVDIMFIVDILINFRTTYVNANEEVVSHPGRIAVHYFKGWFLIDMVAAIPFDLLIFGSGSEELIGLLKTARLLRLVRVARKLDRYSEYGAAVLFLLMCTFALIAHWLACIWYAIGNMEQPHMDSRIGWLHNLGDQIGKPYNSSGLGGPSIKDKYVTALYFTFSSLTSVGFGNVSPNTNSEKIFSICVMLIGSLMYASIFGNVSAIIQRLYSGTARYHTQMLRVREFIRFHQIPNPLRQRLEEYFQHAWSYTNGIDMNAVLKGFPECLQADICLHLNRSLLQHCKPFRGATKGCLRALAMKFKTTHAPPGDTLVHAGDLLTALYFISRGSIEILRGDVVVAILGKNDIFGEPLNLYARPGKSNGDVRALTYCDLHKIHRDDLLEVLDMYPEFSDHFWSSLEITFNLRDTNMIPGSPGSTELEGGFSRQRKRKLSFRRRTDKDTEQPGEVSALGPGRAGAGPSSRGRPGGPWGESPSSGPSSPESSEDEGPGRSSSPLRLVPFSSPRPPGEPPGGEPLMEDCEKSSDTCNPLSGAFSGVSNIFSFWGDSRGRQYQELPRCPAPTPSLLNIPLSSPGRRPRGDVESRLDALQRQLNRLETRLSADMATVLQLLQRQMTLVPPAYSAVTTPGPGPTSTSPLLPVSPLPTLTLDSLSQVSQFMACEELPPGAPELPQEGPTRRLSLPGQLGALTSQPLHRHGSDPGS
# Paired box protein Pax-8, sequence (Q06710 whole entry): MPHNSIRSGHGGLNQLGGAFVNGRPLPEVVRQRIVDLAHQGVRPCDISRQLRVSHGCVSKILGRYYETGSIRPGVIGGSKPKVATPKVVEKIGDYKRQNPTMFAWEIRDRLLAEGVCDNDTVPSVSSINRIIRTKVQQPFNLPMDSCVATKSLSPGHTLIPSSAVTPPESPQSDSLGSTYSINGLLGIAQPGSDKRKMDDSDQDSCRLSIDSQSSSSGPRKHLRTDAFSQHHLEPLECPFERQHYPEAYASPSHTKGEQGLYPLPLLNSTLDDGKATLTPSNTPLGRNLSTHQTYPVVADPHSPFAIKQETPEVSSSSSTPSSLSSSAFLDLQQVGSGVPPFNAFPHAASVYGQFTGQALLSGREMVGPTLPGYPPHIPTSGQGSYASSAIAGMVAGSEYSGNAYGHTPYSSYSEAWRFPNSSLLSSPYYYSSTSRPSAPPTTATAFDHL
smiles,measurement,setting,value
Cc1cc(NC(=O)c2c(F)cccc2Cl)n(-c2nc3ccccc3[nH]2)n1,EC50,[1],> 160 µM (inconclusive)
same,EC50,[2],6.4 µM (active)
same,EC50,[3],> 38 µM (not active)
same,IC50,Estrogen receptor beta,> 50 µM (not active)
same,EC50,Streptococcus,7.12 µM (active)
same,IC50,[4],> 7.72 µM (active)
same,IC50,[5],> 69.5 µM (inactive)
COc1ccc(-n2cc(-c3ccccc3)c3c(N4CCOCC4)ncnc32)cc1,AC50,[6],3.78 µM (active)
same,IC50,H9c2,> 79 µM (inactive)
same,AC50,[7],48.5 µM (active)
Cc1ccc(C(=O)NC(=S)NNC(=O)c2ccccc2)cc1,EC50,[8],1.33 µM (active)
same,IC50,[9],51.6 µM (inactive)
CCc1cc(CNC(=O)c2ccc(OC)c(OCCN3CCCCC3)c2)on1,IC50,[10],5.91 µM (active)
COc1ccc(C2C3=C(CC(C)(C)CC3=O)N(C)C3=C2C(=O)CC(C)(C)C3)cc1,AC50,cells,2.07 µM (active)
CCN(C)C(=O)C1(CCOc2ccccc2)CCN(Cc2ccc(O)c(Cl)c2)CC1,AC50,[11],> 52 µM (inactive)
same,AC50,[12],3 µM (active)
O=C(Nc1nnc(-c2ccc3c(c2)OCCO3)o1)C1CCCCCC1,AC50,[13],> 200 µM (inactive)
O=c1nc(Nc2cccc(OCc3ccccc3)c2)sc2ncccc12,IC50,[14],1.64 µM (active)
Fc1cccc(CN2C[C@@H]3N[C@H](C2)[C@H]3c2ccc(/C=C/c3ccccc3)cc2)c1,AC50,[15],18.8 µM (active)
same,AC50,[16],13.2 µM (active)
same,AC50,[17],13.7 µM (active)
COc1cccc(-c2ccc3c(c2)[C@H]2[C@H](CCN2C(=O)c2ccccc2F)[C@H](CO)N3C)c1,AC50,Paired box protein Pax-8,8.72 µM (active)
same,AC50,[18],22.7 µM (active)
same,AC50,[19],13.8 µM (active)
same,AC50,[20],24 µM (active)
same,AC50,[21],57.8 µM (active)
same,AC50,[22],5.53 µM (active)
same,AC50,[23],7.07 µM (active)
same,AC50,[24],25.3 µM (active)
same,AC50,[25],20.5 µM (active)
CCCC(=O)C1CCN(c2ncnc3c2CN(C(=O)c2ccc(-c4ccccc4)cc2)CC3)CC1,IC50,[26],0.14 µM (active)
same,IC50,[27],7.68 µM (active)
same,IC50,[28],0.021 µM (active)
Cc1nc(N)sc1N=Nc1ccc(Br)cc1,EC50,[29],0.285 µM (active)
same,EC50,[30],< 0.1 µM (active)
same,EC50,H4,> 120 µM (not active)
same,EC50,[31],0.303 µM (active)
same,EC50,[32],0.28 µM (active)
same,AC50,[33],0.753 µM (active)
same,EC50,[34],> 67.5 µM (inactive)
